Key:
[1] = system: parathyroid cell calcium receptor; test: Cl^- current in Xenopus oocytes injected with (bovine) parathyroid cell mRNA; format: cell-based; settings: fendiline 100 μM
Experimental: (§1) Following incubation, an oocyte was placed into a 100-μl plastic chamber and superfused with MBS at a flow rate of 0.5 ml/min using a peristaltic pump. Test molecules or inorganic polycations were added by rapidly moving the tubing into different buffers. Recording and current passing electrodes were constructed from thin-wall capillary tubing pulled to a resistance of 1-3 Mohms and filled with 3M KCl. […] Currents were recorded directly onto a strip chart recorder.

net positive charge = format: physicochemical; settings: Table 1; at physiological pH
[2] = target: T1, parathyroid cell calcium receptor (Bos taurus, UniProt P35384); test: cell-based; format: cell-based
T1 sequence (P35384 21-1085 limits assumed): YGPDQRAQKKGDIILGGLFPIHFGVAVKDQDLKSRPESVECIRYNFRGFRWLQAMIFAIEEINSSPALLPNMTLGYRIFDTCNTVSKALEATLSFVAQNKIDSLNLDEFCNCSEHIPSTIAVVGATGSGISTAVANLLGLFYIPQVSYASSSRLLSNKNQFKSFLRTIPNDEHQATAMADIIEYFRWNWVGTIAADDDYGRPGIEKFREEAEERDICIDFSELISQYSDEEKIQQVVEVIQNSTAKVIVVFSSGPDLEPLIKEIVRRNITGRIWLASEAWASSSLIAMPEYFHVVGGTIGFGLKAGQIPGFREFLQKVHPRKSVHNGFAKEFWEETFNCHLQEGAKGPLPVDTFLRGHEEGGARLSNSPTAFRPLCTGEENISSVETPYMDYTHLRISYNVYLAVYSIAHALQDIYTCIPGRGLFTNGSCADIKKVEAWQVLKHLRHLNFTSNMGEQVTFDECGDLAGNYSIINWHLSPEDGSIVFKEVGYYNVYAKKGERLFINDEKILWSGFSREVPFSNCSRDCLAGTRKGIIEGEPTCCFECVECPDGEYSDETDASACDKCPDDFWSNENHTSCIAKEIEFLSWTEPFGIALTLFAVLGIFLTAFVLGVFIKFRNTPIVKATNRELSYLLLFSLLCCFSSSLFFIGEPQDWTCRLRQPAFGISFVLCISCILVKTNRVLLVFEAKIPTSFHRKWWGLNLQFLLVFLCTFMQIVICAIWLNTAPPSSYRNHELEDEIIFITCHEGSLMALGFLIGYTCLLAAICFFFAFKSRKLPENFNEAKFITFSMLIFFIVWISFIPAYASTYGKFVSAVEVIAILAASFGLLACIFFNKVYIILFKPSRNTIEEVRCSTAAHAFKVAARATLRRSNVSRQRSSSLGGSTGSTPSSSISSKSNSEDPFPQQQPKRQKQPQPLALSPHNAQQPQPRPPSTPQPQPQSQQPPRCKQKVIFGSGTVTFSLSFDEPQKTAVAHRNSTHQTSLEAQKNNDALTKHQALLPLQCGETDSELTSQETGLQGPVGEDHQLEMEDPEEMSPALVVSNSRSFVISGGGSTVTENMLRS

calcium receptor = target: T2, calcium receptor (Homo sapiens, UniProt P41180); test: Xenopus oocytes injected with human parathyroid mRNA; format: cell-based
T2 construct: Xenopus oocytes injected with poly(A)+ mRNA from human hyperplastic parathyroid tissue
T2 sequence (P41180 20-1078): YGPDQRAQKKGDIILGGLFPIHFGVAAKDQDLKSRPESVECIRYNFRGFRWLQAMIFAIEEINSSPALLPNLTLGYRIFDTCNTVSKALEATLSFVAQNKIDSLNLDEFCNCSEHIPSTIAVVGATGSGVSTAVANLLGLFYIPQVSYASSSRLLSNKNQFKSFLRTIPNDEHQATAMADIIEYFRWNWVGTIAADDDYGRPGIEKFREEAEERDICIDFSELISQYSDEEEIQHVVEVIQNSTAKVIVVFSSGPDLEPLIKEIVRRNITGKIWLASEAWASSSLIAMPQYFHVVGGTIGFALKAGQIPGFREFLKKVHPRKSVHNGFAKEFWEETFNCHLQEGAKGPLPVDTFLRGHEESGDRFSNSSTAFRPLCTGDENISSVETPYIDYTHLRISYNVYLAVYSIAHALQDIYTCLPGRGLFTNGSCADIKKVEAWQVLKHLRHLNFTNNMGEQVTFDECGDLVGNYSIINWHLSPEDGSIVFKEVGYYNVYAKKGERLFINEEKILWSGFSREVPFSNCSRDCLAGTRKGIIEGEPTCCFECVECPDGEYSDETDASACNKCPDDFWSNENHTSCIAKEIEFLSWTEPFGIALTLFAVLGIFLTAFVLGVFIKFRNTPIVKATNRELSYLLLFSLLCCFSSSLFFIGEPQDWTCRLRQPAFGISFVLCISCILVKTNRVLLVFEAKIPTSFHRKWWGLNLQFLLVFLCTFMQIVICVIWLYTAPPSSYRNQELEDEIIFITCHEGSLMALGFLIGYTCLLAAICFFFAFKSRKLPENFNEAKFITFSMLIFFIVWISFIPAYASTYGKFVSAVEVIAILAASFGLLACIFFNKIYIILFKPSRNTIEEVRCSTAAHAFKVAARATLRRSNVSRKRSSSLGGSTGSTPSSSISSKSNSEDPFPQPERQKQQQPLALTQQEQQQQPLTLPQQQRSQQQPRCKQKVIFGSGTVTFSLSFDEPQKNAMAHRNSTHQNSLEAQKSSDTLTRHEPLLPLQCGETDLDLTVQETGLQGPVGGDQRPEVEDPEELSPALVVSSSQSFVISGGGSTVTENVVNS
Experimental: Oocytes were injected with poly(A)+-enriched mRNA from human parathyroid tissue (hyperplastic glands from a case of secondary HPT).
as §1
Using this screen allows one to test for an action directly on the calcium receptor. Oocytes expressing the calcium receptor also responded to several molecules active on intact parathyroid cells when screened as follows. […] This offers rather compelling evidence showing that these molecules act on the calcium receptor or on some other protein intimately associated with its function.

[3] = system: L-type voltage-sensitive Ca^2+ channel; test: block of extracellular Ca^2+-induced increases in [Ca^2+]i in rMTC 6-23 cells; format: cell-based, rat; settings: read-out: IC50 for block of extracellular Ca^2+-induced increases in [Ca^2+]i
[4] = system: osteoclast calcium receptor; test: [Ca^2+]i (indo-1) in rat osteoclasts; format: cell-based; settings: with or without 1 mM extracellular CaCl2
rat osteoclasts = test: inhibition of bone resorption (pit formation on bovine cortical bone slices); format: cell-based; settings: Osteoclast, 24 hours, read-out: IC50 for inhibition of bone resorption in vitro
Excerpt: This was done by morphometric analysis of pit formation on thin slices of bovine cortical bone using scanning electron microscopy.

bovine parathyroid cells [5] = test: PTH secretion from bovine parathyroid cells; format: cell-based
Experimental: In most experiments, cells loaded with fura-2 were also used in studies of PTH secretion.
PTH secretion was measured by first suspending cells in PCB containing 0.5 mM CaCl2 and 0.1% BSA.

bovine parathyroid cells [6] = test: inositol phosphate formation in bovine parathyroid cells; format: cell-based
Experimental: This section describes procedures measuring inositol phosphate formation. Membrane phospholipids were labeled by incubating parathyroid cells with 4 μCi/ml ^3 H-myo-inositol for 20-24 hours. Cells were then washed and resuspended in PCB containing 0.5 mM CaCl2 and 0.1% BSA. Incubations were performed in microfuge tubes in the absence or presence of various concentrations of organic polycation for different times. Reactions were terminated by the addition of 1 ml chloroform-methanol-12N HCl (200:100:1; v/v/v). Aqueous phytic acid hydrolysate (200 μl; 25 μg phosphate/tube). The tubes were centrifuged and 600 μl of the aqueous phase was diluted into 10 ml water.
Inositol phosphates were separated by ion-exchange chromatography using AG1-X8 in either the chloride- or formate-form. When only IP3 levels were to be determined, the chloride-form was used, whereas the formate form was used to resolve the major inositol phosphates (IP3, IP2, and IP1). For determination of just IP3, the diluted sample was applied to the chloride-form column and the column was washed with 10 ml 30 mM HCl followed by 6 ml 90 mM HCl and the IP3 was eluted with 3 ml 500 mM HCl. The last eluate was diluted and counted. […] The eluted samples from the formate columns were rotary evaporated, the residues brought up in cocktail, and counted.
The isomeric forms of IP3 were evaluated by HPLC. […]

bovine parathyroid cells [7] = format: cell-based
Experimental: This section describes measuring cyclic AMP levels. Cells were incubated as above for PTH secretion studies and at the end of the incubation, a 0.15-ml sample was taken and transferred to 0.85 ml of hot (70° C.) water and heated at this temperature for 5-10 minutes. The tubes were subsequently frozen and thawed several times and the cellular debris sedimented by centrifugation. Portions of the supernatant were acetylated and cyclic AMP concentrations determined by radioimmunoassay.
Bovine parathyroid cells were cultured for 16 hours with or without 100 ng/ml pertussis toxin. […] Each value is the mean±SEM of three experiments.

In the case of `CC(NCCC(c1ccccc1)c1ccccc1)c1ccccc1` (racemic) [Fendiline, reference compound], the “Cl^- current in oocytes” value [1] is reported as “oscillatory increases”.

For `C1CNCCNCCNCCNCCNCCN1` [Hexacyclen, 1,4,7,10,13,16-hexaaza-cyclooctadecane, reference compound], the “Net (+) Charge” value (net positive charge) was “+6”, the “potency relative to NPS 383” value ([2]; [Ca^2+]i) was 7 -fold and the “potency relative to pentaethylenehexamine” value ([2]; [Ca^2+]i) was 25 -fold. For the same molecule, the “effective concentration for mobilization of intracellular Ca^2+ in oocytes” value (calcium receptor) was 135 µM.

In the case of `NCCCNCCCCNCCCNCCCN(O)CCCNC(=O)Cc1c[nH]c2cccc(O)c12` [NPS 015], the IC50 [3] is reported as 3 µM.

With `CC(Cc1ccccc1)NCCC(c1ccccc1)c1ccccc1` (stereo not shown) [Prenylamine] the “mobilization of [Ca^2+]i in rat osteoclasts” value [4] was “mobilization of [Ca^2+ ]i” and the IC50 (rat osteoclasts) was 10 µM.

In the case of protamine, the “inhibition of PTH secretion” value (bovine parathyroid cells [5]) is reported as “inhibited PTH secretion to the same extent as extracellular Ca^2+”, the “increases in [Ca^2+]i” value [2] is reported as “rapid and transient increases in [Ca^2+ ]i” and the “formation of IP3” value (bovine parathyroid cells [6]) is reported as “rapid (within 30 seconds) increase”. For the same molecule, the “cyclic AMP (+PTx)” value (bovine parathyroid cells [7]) was 89 ± 9 % of control and the “cyclic AMP (control, without pertussis toxin)” value (bovine parathyroid cells [7]; 10 μM isoproterenol, 2.0 mM Ca^2+, or 0.5 mM Ca^2+ with 200 μM spermine, 30 μM neomycin B or 2 μg/ml protamine, mean±SEM of three experiments) was 20 ± 4 % of control.
